# Results from patent US9175077B2, “Nucleic acids encoding biologically active polypeptides derived from a novel early stage pregnancy factor designated maternin (MA)” (NOBEL BIOSCIENCES LLC, priority 1999, dated 2015).
# “Also recorded” adds a separate entry of the source.
# Experiments:
# normal human cells = assay: Effects on normal cells in vitro (confocal microscopy, trypan blue, MTT, 3H-thymidine); format: cell-based
# Method: More extensive studies of the effects of MA and with truncated synthetic forms of MA (MAS) on a wide range of other human tumor cells were carried out using three-dimensional confocal microscopy. Cells were cultured and then seeded onto gelatinized glass chamber slides and incubated 24 hrs with the various test materials. The slides were then fixed with formalin and treated serially with Triton X-100 (0.01%) for 10 min at 25°, 0.4 ug/ml fluorescein isothiocyanate (FITC)-labeled Phalloidin (Sigma Chem. Co.) at room temperature for 30 min to bind actin, washed with PBS and the DNA stained with Propidium iodide (PI) (0.5 ug·ml) (Sigma Chemical Co.), for 15 min. The stained slides were washed and mounted on slow fade (Molecular Probes, Inc., Eugene, Oreg.) and examined through a dual emission filter XF53 (Omega, Inc., Brattlesboro, Va.) by fluorescent microscopy. In some experiments only DNA staining was performed. In these instances Triton X-100 was not used. The slides were stained with PI and examined for cell morphology and chromatin degradation under 3D confocal microscopy.
# Untreated cells (first line) show normal morphology. The confocal microscopy results also verified the specificity of MA in killing tumor cells.
# To be certain that this specificity for tumor cells was not simply the consequences of a difference between cycling and non-cycling cells, the following cell-types were also used: proliferating human normal fibroblasts, endothelial cells (HUVEC), and PHA-stimulated lymphocytes. […] In fact, MA actually promoted growth of some of these cells.
# (§1) These cells included human, primate, and rodent bone marrow, PBMCs, and human CD4+ T-cells, CD8+ T-cells, CD34+ cells, and macrophages enriched from normal PBMCs, as well as normal human endothelial cells and fibroblasts. Cytotoxicity was assessed by 3H-thymidine incorporation, trypan blue staining, cell numbers, and morphological examination by light and confocal microscopy. Hematopoiesis was not only unimpaired it was promoted. […] These studies were chiefly performed with rats and mice, but also included rhesus macaques treated with 0.2 mg/kg for several months. Like the in vitro results, hematopoiesis was not impaired but instead enhanced.
# [1] = tested on: human bone marrow stem cells; assay: Engraftment of ex vivo expanded hematopoietic progenitor cells in BNX-XID mice
# Source text: The inventors also investigated the effect of MA on engraftment of human bone marrow stem cells [CD34^+, CD38″ cells, long term cultures after 4 mos, and stromal free cultures] ex vivo expanded hematopoietic progenitor cells in Rats irradiated [Sprague DAwley, 450 Rad] and immunodeficient mice [SCID or BNX-XID mice].
# Measurement of short-term hematopoietic reconstitution kinetics and long term repopulating ability. Just prior to implantation, SCID, BNX-XID-immunodeficient mice and Sprague Dawley rats were exposed to 450 rad total body γ-irradiation. […] But the SCID and BNX-XID immunodeficient mice were repopulated by the cultured, treated human cells.
# [2] = Lethal dose taxol in Sprague-Dawley rats; format: in vivo
# Method: Sprague-Dawley rats were given taxol in large lethal doses, 4.5 mg in one I.P. inoculation. […] Bone marrow suppression can also be a side effect of the clinical use of taxol.^179 As in the radiation experiments, either MA, pMA, MAS1, or various polypeptide controls were given subcutaneously only in two doses 24 and 48 hrs before taxol treatment or were given 3×/week for 4 weeks. […]
# HIV-1 = tested on: HIV-1
# Method: Virus (MOI of 0.001) was added to 10^6 cells in RPMI-1640 with 10% FCS. One hour later the various polypeptides were added once. The cells cultured for 3 days with 5 ug PHA and 20 i.m. of II-2/ml at 37°, after which virus was estimated by determining p24 (HIV-1) or p27 (SIV) (Organon-Teknika).
# The effect of native and synthetic MA on HIV-1 infection in vitro was evaluated using PHA and II-2 stimulated primary peripheral blood cells (PBMC), CD4+ T-cells enriched fractions from PBMC, and CD14+ macrophage enriched fractions. Infection was with HIV-1 IIIB (PBMC and CD4+ T-cells), HIV-1 Ba-L (macrophages), and two primary HIV-1 isolates not passaged in any cell line (PBMC).
# [3] = Toxicity in animal studies; format: in vivo, rats, mice; details: incl. rhesus macaques 0.2 mg/kg for several months
# Method: as §1
# [4] = tested on: spontaneous breast carcinomas; assay: Spontaneous breast carcinomas in Sprague-Dawley rats; format: in vivo; details: 2 weeks of therapy
# Source text: As shown, MA killed a wide variety of human tumor cells in vitro and in vivo killed xenotransplanted human tumors in immune deficient mice. We wanted to be certain that the in vivo results would not be limited to immune deficient mice. […] Therefore, we tested the effects of MA on: • spontaneous fibrosarcomas which developed in three older FVB/N mice; and • spontaneous breast carcinomas which developed in three older Sprague-Dawley rats.
# Similar results were obtained with the spontaneous mammary carcinomas of rats.
# HIV-1 gene expression = assay: HIV-1 transgenic mice, pups feeding from treated mothers; format: in vivo; details: for survival / development of pups (qualitative): mothers treated, pups breast fed
sequence,measurement,setting,value
VVCNYRDVRFESIRLPGCPRGVNPVVSYAVALSCQ [MA],"inhibition of growth or apoptosis of proliferating normal fibroblasts, HUVEC, PHA-stimulated lymphocytes",normal human cells,no inhibition of growth or evidence of apoptosis
same,"effect on morphology of primary human fibroblasts, cord blood CD34+ cells, CD4+ T cells, macrophages",normal human cells; 2000 ng/ml,no effect
same,cytopathogenicity / toxic side effects on normal cells in vitro,normal human cells; concentration ranges and time periods reported,no toxic side effects; also recorded: no cytopathogenicity
same,cytotoxicity on normal cells at higher concentrations,normal human cells; up to 10× the effective concentrations,no evident cytotoxic effects; also recorded: no evident cytotoxicity
same,CD4,[1],3%
same,CD14,[1],1%
same,CD34,[1],37%
same,survival of pretreated animals,"[2]; low dose, two doses 24 and 48 hrs before taxol",Sixty-percent
same,survival maintained to day 80,"[2]; therapy maintained 28 days, high dose (1000 ng)",~80%
same,survival maintained to day 80,"[2]; therapy maintained 28 days, low dose (100 ng)",about 60%
same,survival on day 5,"[2]; therapy maintained 28 days, low or high dose",100%
same,inhibition of primary HIV-1 isolates in PBMCs,HIV-1,inhibited replication
same,IC50,"HIV-1; read-out: concentration at which virus production was inhibited 50%, IIIB and Ba-L, p24 in extracellular fluid",~0.03 µM
same,toxic side effects grossly or by blood counts,[3],no evident toxic side effects
same,tumor outcome,[4],complete tumor regression; also recorded: partial tumor regression
same,weight over the ten day period,HIV-1 gene expression; 30-150 pmoles,quadrupled their weight
same,animals that eventually died,"HIV-1 gene expression; low dose (30 pmoles), after 2 mos",about 50%
same,survival / development of pups (qualitative),HIV-1 gene expression,survived
same,survival / development of pups (qualitative),HIV-1 gene expression; listed as native MA,normal development
same,HIV-1 viral expression in tissues,"HIV-1 gene expression; mouse, in vivo",marked inhibition of viral expression
